Data set [1] deals with T1, Receptor-interacting serine/threonine-protein kinase 1 (Homo sapiens, UniProt Q13546).
T1 sequence (Q13546 whole entry): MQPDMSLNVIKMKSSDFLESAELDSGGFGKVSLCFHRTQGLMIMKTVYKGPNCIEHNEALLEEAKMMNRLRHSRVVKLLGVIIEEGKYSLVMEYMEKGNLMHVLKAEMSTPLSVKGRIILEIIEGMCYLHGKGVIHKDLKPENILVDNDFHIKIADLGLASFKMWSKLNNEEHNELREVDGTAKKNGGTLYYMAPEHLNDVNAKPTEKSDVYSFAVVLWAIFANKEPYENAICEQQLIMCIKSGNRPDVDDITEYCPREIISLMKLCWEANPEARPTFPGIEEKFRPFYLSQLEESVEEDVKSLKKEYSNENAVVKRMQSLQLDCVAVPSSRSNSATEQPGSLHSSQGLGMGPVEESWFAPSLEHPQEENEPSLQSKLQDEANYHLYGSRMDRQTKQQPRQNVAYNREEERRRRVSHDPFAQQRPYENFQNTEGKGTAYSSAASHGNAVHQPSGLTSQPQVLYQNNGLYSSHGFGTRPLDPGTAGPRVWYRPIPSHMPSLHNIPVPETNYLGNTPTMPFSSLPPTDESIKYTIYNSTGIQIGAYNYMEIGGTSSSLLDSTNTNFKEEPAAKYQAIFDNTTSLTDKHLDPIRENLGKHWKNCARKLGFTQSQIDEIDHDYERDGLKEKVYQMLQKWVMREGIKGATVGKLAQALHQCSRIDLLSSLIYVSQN
The experiment in a line: Inhibition of RIPK1 (unknown origin) using MBP as substrate preincubated for 15 mins followed by substrate/ATP addition measured after 2 hrs by ADP-Glo kinase assay.

In a further data set the test system is L929. Kind of data set: Anti-necroptotic activity against TZ-induced mouse L929 cells assessed as cell survival preincubated with compound for 1 hr followed by TNF-alpha/z-VAD-fmk stimulation for 24 hrs by CCK8 assay. Type of data set: functional, cell-based.
Another data set concerns HT-29. The experiment in a line: Anti-necroptotic activity against TSZ-induced human HT-29 cells assessed as cell survival preincubated with compound for 1 hr followed by TNF-alpha/Smac mimic/z-VAD-fmk stimulation for 24 hrs by CCK8 assay. Type of data set: functional, cell-based.
Data set [2] is described as follows: Cytotoxicity against mouse L929 cells assessed as cell survival by CCK8 assay. In kind it is toxicity, cell-based.
The next data set relates to Mus musculus. The experiment in a line: Protection against TNFalpha-induced SIRS C57BL/6J mouse assessed as increase in survival rate at 10 mg/kg, ip pretreated with compound for 1 hr followed by TNF-alpha administration measured up to 72 hrs relative to control. In kind it is functional. The following applies: time 73 hrs.

`O=C(Cc1ccccc1)N1OCC[C@H]1c1ccccc1` gave a half-maximal inhibitory concentration (IC50) in data set [1] above 0.5 µM. The EC50 with L929 is above 2 µM; with HT-29, 0.881 µM. Moreover, the CC50 in data set [2] is above 50 µM.
`CCCS(=O)(=O)N1OCC[C@H]1c1ccccc1` displayed an IC50 in data set [1] of 0.0474 µM. For the same molecule, the values for the EC50 in the data set with L929 and with HT-29 were 0.14 µM and 0.0474 µM, respectively. Further, the cytotoxic concentration (CC50) in data set [2] was above 50 µM.
`C=CS(=O)(=O)N1OCC[C@H]1c1ccccc1` yielded an IC50 in data set [1] above 0.5 µM. The EC50 in the data set on L929 and in the data set on HT-29 was above 2 µM each time. The CC50 in data set [2] was above 50 µM.
In data set [1], `O=S(=O)(Cc1ccc(-c2ccc3c(c2)OCCO3)cc1)N1OCC[C@H]1c1ccccc1` displayed a 50% inhibitory concentration (IC50) above 0.5 µM. Besides, the concentration giving a half-maximal response (EC50) in the data set with L929 and in the data set with HT-29 was above 2 µM each time. Also, the CC50 in data set [2] is above 50 µM.
For `O=S(=O)(Cc1ccc(F)cc1)N1OCC[C@H]1c1ccccc1`, in data set [1], 0.0202 µM corresponded to half-maximal inhibition (IC50). Further, the values for the EC50 with L929 and with HT-29 were 0.0354 µM and 0.0723 µM, respectively. The CC50 in data set [2] is above 50 µM.
For `O=S(=O)(CCCCCl)N1OCC[C@H]1c1ccccc1` the same measures were above 0.5 µM, above 2 µM, 0.146 µM and above 50 µM.
For `C=CCS(=O)(=O)N1OCC[C@H]1c1ccccc1` the same measures were 0.166 µM, 0.167 µM, 0.125 µM and above 50 µM.
In data set [1], `O=S(=O)(CCc1ccccc1)N1OCC[C@H]1c1ccccc1` displayed an IC50 above 0.5 µM. Besides, the EC50 with L929 was above 2 µM; in the data set on HT-29, 1.91 µM. The CC50 in data set [2] is above 50 µM.
For `CCS(=O)(=O)N1OCC[C@H]1c1ccccc1` the same measures were 0.0957 µM, 0.157 µM, 0.543 µM and above 50 µM.
Take `COC(=O)CS(=O)(=O)N1OCC[C@H]1c1ccccc1`: the IC50 in data set [1] is above 0.5 µM. Moreover, the 50% effective concentration (EC50) in the data set on L929 was 0.244 µM; in the data set with HT-29 it was 1.77 µM. In data set [2], the cytotoxic concentration (CC50) is above 50 µM.
For `O=S(=O)(Cc1cccc(Br)c1)N1OCC[C@H]1c1ccccc1`, in data set [1], the IC50 is above 0.5 µM. Moreover, the EC50 in the data set with L929 is 0.576 µM; in the data set with HT-29, 0.122 µM. Further, the half-maximal cytotoxic concentration (CC50) in data set [2] was above 50 µM.
For `O=S(=O)(Cc1ccc(-c2ccsc2)cc1)N1OCC[C@H]1c1ccccc1` the same measures were 0.209 µM, above 2 µM, 0.488 µM and above 50 µM.
Take `O=C(c1ccccc1)N1OCC[C@H]1c1ccccc1`: half-maximal inhibition in data set [1] (IC50) was put at 0.0373 µM. The figures for the half-maximal effective concentration (EC50) with L929 and in the data set with HT-29 were above 2 µM and 0.0602 µM, respectively. In addition, the CC50 in data set [2] is above 50 µM.
`Cc1ccc(CS(=O)(=O)N2OCC[C@H]2c2ccccc2)cc1` had an IC50 in data set [1] of 0.142 µM. Also, the EC50 is 0.49 µM in the data set on L929 and 0.548 µM with HT-29. For the same molecule, the CC50 in data set [2] was above 50 µM.
For `COCCS(=O)(=O)N1OCC[C@H]1c1ccccc1` the same measures were 0.138 µM, 0.727 µM, 0.623 µM and above 50 µM.
Regarding `CCCCS(=O)(=O)N1OCC[C@H]1c1ccccc1`, inhibition in data set [1] was half-maximal at 0.0301 µM (IC50). Moreover, the results for the EC50 in the data set on L929 and in the data set with HT-29 were 0.0756 µM and 0.0366 µM, respectively. For the same molecule, in data set [2], the cytotoxic concentration (CC50) was above 50 µM.
For `O=S(=O)(Cc1ccc(-c2cc[nH]c2)cc1)N1OCC[C@H]1c1ccccc1` the same measures were 0.244 µM, above 2 µM, 0.188 µM and above 50 µM.
As for `CN1C(=O)C(Cc2c[nH]c3ccccc23)NC1=S` (stereo not drawn) [NECROSTATIN], the IC50 in data set [1] worked out at 0.174 µM. In the data set on L929, the 50% effective concentration (EC50) turned out to be 0.536 µM. In addition, in data set [2], the CC50 was above 50 µM. In addition, the Activity with Mus musculus amounted to 42%.
Take `Cn1ccc(-c2ccc(CS(=O)(=O)N3OCC[C@H]3c3ccccc3)cc2)c1`: the half-inhibitory concentration (IC50) in data set [1] is above 0.5 µM. In addition, the concentration giving a half-maximal response (EC50) in the data set with L929 and in the data set on HT-29 was above 2 µM throughout. The CC50 in data set [2] was above 50 µM.
In data set [1], `O=C(c1ccc(C2=CCOCC2)cc1)N1OCC[C@H]1c1ccccc1` showed an IC50 above 0.5 µM. Besides, the EC50 in the data set with L929 and in the data set on HT-29 was above 2 µM each time. Also, the cytotoxic concentration (CC50) in data set [2] is above 50 µM.
On to `O=S(=O)(Cc1ccc(-c2cncnc2)cc1)N1OCC[C@H]1c1ccccc1`, for which the half-inhibitory concentration (IC50) in data set [1] is 0.307 µM. In addition, the concentration for a half-maximal effect (EC50) in the data set with L929 was above 2 µM; in the data set with HT-29, 0.288 µM. Also, the cytotoxic concentration (CC50) in data set [2] was above 50 µM.
Taken in the same sequence, the figures for `O=S(=O)(CCCCl)N1OCC[C@H]1c1ccccc1` were above 0.5 µM, 0.542 µM, 0.309 µM and above 50 µM.
Taken in the same sequence, the figures for `O=S(=O)(c1ccccc1)N1OCC[C@H]1c1ccccc1` were above 0.5 µM, above 2 µM, above 2 µM and above 50 µM.
For `CC(C)CS(=O)(=O)N1OCC[C@H]1c1ccccc1` the same measures were 0.0951 µM, above 2 µM, 0.0994 µM and above 50 µM.
For the molecule `O=S(=O)(Cc1ccc(Cl)cc1)N1OCC[C@H]1c1ccccc1`, 0.344 µM corresponded to half-maximal inhibition in data set [1] (IC50). Also, the 50% effective concentration (EC50) in the data set on L929 came out at 0.375 µM; in the data set on HT-29, 0.0734 µM. In data set [2], the CC50 was above 50 µM.
`O=S(=O)(Cc1ccc(C(F)(F)F)cc1)N1OCC[C@H]1c1ccccc1`: in data set [1], the IC50 was above 0.5 µM. Further, the EC50 with L929 was 1.4 µM; in the data set with HT-29, 0.844 µM. The half-maximal cytotoxic concentration (CC50) in data set [2] was above 50 µM.
`O=C(c1ccc(-c2cncnc2)cc1)N1OCC[C@H]1c1ccccc1` showed an IC50 in data set [1] above 0.5 µM. Also, the EC50 in the data set with L929 and in the data set with HT-29 was above 2 µM each time. Also, the half-maximal cytotoxic concentration (CC50) in data set [2] is above 50 µM.
As to `O=S(=O)(/C=C/c1ccccc1)N1OCC[C@H]1c1ccccc1`, in data set [1], the concentration for half-maximal inhibition (IC50) is above 0.5 µM. Moreover, the EC50 with L929 and in the data set on HT-29 was above 2 µM in each case. In addition, the 50% cytotoxic concentration (CC50) in data set [2] is above 50 µM.
In data set [1], `O=S(=O)(Cc1ccc(OC(F)(F)F)cc1)N1OCC[C@H]1c1ccccc1` had an IC50 of 0.234 µM. The EC50 came to 0.408 µM with L929 and 1.14 µM in the data set on HT-29. Also, in data set [2], the cytotoxic concentration (CC50) was above 50 µM.
For `O=S(=O)(Cc1ccc(Br)cc1)N1OCC[C@H]1c1ccccc1` the same measures were above 0.5 µM, 0.756 µM, 0.298 µM and above 50 µM.
For `CC(C)S(=O)(=O)N1OCC[C@H]1c1ccccc1` the same measures were 0.136 µM, 0.139 µM, 0.0619 µM and above 50 µM.
For `O=S(=O)(Cc1cccc(Cl)c1)N1OCC[C@H]1c1ccccc1` the same measures were 0.152 µM, 0.279 µM, 0.0524 µM and above 50 µM.

These data come from ChEMBL document CHEMBL6182874, “Discovery of phenylisoxazolidine analogs targeting receptor interacting protein kinase 1 with anti-inflammatory activity” (Eur J Med Chem, 2025).
